Patent US20220288058A1, “COMBINATION THERAPY USING A MALT1 INHIBITOR AND A BTK INHIBITOR” (Janssen Pharmaceutica NV, priority 2021, published 2022)
Entries after “also recorded” stand apart in the source; their conditions may differ.

What was measured:
[1] = tested on: OCI-LY10 human DLBCL xenografts; assay: Study 3: combination efficacy (Compound B QD + Compound A BID), OCI-LY10 xenografts in NSG mice; assay type: in vivo, mouse; conditions: Compound B 30 mg/kg QD
Description: Following early animal dropouts in Study 2 due to tumor progression (metastasis and hindlimb paralysis), NSG female mice in Study 3 and Study 4 were injected SC into the right flank with a lower cell number (1×10^6 OCI-LY10 cells) in PBS containing 50% Matrigel™. On day 35 (Study 3) or day 32 (Study 4), mice were randomized based on tumor volume (see Table 4) and dosed orally QD day with Compound B and BID with Compound A (Study 3) or BID for both compounds (Study 4) with various dose concentrations according to treatment schedule above (see Table 4) for a period of 21 days.
Tumor volume in SC models was calculated using the formula: tumor volume (mm^3)=(D×d^2/2); where “D” represents the larger diameter and “d” the smaller diameter of the tumor as determined by calliper measurements. Tumor volume data was graphed as the mean tumor volume f SEM.
The percent ΔTGI was defined as the difference between mean tumor burden of the treatment and control groups, calculated using the following formula: ([(TVc−TVc0)−(TVt−TVt0)]/(TVc−TVc0))×100, where “TVc” is the mean tumor burden of a given control group, “TVc0” is the mean initial tumor burden of a given control group, “TVt” is the mean tumor burden of the treatment group, and “TVt0” is the mean initial tumor burden of the treatment group. The percent tumor growth inhibition (TGI) was defined as the difference between mean tumor volumes of the treated and control groups, calculated as: ((TVc−TVt)/TVc)×100 where “TVc” is the mean tumor volume of the control group and “TVt” is the mean tumor volume of the treatment group. […]
Tumor regression was calculated when mean tumor burden in treated group was smaller than the tumor burden at start of treatment of the same treated group. The % Tumor Regression (TR), quantified to reflect the treatment-related reduction of tumor volume as compared to baseline independent of the control group, was calculated using the following formula: % TR=(1-mean (TVti/TVt0i))×100 where “TVti” is the tumor burden of individual animals in a treatment group, and “TVt0i” is the initial tumor burden of the animal. […]

[2] = Body weight and tolerability monitoring of OCI-LY10 tumor bearing NSG mice (Studies 2-4); assay type: in vivo
Description: Subsequently animal body weight and tumor volume was monitored two to three times per week. Animals were monitored daily for clinical signs related to either compound toxicity or tumor burden (i.e., hind limb paralysis, lethargy, dyspnea, etc.).
Body weight changes of individual mice were calculated using the formula: ([W−W0]/W0)×100, where “W” represents mean body weight on a particular day, and “W0” represents body weight at initiation of treatment. Body weight was graphed as mean body weight change±SEM.

OCI-Ly10 = assay: Inhibition of DLBCL cancer cell proliferation (CellTiter-Glo), Compound A and Compound B mono and combination; assay type: cell-based, human; conditions: monotherapy, highest concentration tested, 4 days
Description: Compound A and Compound B were used throughout the in vitro and cellular assessment of activity. All small molecules were prepared as 100% dimethyl sulfoxide (DMSO) stocks as indicated. A final concentration of 0.25% DMSO was used as a control. High Control=Cells+DMSO 0.25%.
A panel of 4 B-cell lymphoma lines was treated with different doses of both compounds. The following ABC-DLBCL cell lines were tested: OCI-Ly10; TMD8; OCI-Ly3; and HBL1. The cell lines were grown in 96-well plates and treated with a matrix of seven scalar concentrations of Compound A ([…]) and six scalar concentrations of Compound B ([…]) and all combinations thereof. This checkerboard design was repeated on up to four separate plates. The final concentration of DMSO was 0.25%. After an incubation of four days at 37° C. and 5% CO2, cell viability was determined by adding CellTiter-Glo®. Luminescence was read on an Envision device and readouts were used to calculate potential combination effects.
For the assessment of combination effects on DLBCL or MCL cancer cell proliferation, the observed combination effects were evaluated using the public available BIGL (Biochemically Intuitive Generalized Loewe Model) R package which measures the evidence in the data, in the presence of variability, against certain null models derived from the monotherapies. […]

Compound: C=CC(=O)N[C@H]1CCC[C@H]1NC(=O)c1sc2nccc3c2c1NC(=O)N3c1cnc(CC(C)C)cc1C (atropisomer, axis not shown) [Compound B, N-((1R,2S)-2-acrylamidocyclopentyl)-5-(S)-(6-isobutyl-4-methylpyridin-3-yl)-4-oxo-4,5-dihydro-3H-1-thia-3,5,8-triazaacenaphthylene-2-carboxamide]
- TGI ([1]; Study 3, day 53): 50%
- ΔTGI ([1]; Study 3, day 53): 65%
- animals removed due to clinical signs of tumor progression ([1]; Study 3): 1
- body weight ([2]; Study 2, 3 weeks of treatment): no body weight loss was observed
- animals found dead or taken off study due to negative clinical signs ([2]; Study 3, Compound B 30 mg/kg QD): one animal
- body weight loss during the 3 weeks of treatment ([2]; Study 3 and Study 4, similar frequencies in vehicle group): low level, transient body weight loss; also recorded: low level, transient, body weight loss
- animals removed due to reaching the maximum allowed body weight loss of 20% ([2]; Study 4, Compound B 15 mg/kg): one each
- animals died during the study ([2]; Study 4, Compound B 50 mg/kg): one animal
- tolerability in NSG mice ([2]; all dose levels tested, up to 50 mg/kg BID or 100 mg/kg QD): well tolerated
- proliferation inhibition (OCI-Ly10): up to 75%
